Laboratory results published in PubChem BioAssay AID192 (DTP/NCI, 2004).
Several values for one entry are separate records, joined by “and”; a condition that tells them apart may be missing. Equal entries are not always repeated. Inconclusive results and toxic doses are left out.

Test system: BDF1 mice, B16 melanoma ip, median survival T/C
Assay: NCI In Vivo Anticancer Drug Screen. Data for tumor model B16 Melanoma (intraperitoneal) in B6D2F1 (BDF1) mice
Conditions: endpoint: median survival time, higher = longer survival
How it was run: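 Vehicle-treated animals serve as the reference (C); treated animals (T) are scored for survival or tumor size after tumor transplantation.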

[1] = dose: 3.12 mg/kg/injection, schedule: Q01DX009 (ip), vehicle: Klucel (hydroxypropylcellulose) (HPC)
[2] = dose: 6.25 mg/kg/injection, schedule: Q01DX009 (ip), vehicle: Klucel (hydroxypropylcellulose) (HPC)
[3] = dose: 50.0 mg/kg/injection, schedule: Q01DX009 (ip), vehicle: Klucel (hydroxypropylcellulose) (HPC)
[4] = dose: 100.0 mg/kg/injection, schedule: Q01DX009 (ip), vehicle: Klucel (hydroxypropylcellulose) (HPC)
[5] = dose: 200.0 mg/kg/injection, schedule: Q01DX009 (ip), vehicle: Klucel (hydroxypropylcellulose) (HPC)
[6] = dose: 100.0 mg/kg/injection, schedule: Q04DX003 (ip), vehicle: Klucel (hydroxypropylcellulose) (HPC)
[7] = dose: 200.0 mg/kg/injection, schedule: Q04DX003 (ip), vehicle: Klucel (hydroxypropylcellulose) (HPC)
[8] = dose: 400.0 mg/kg/injection, schedule: Q04DX003 (ip), vehicle: Klucel (hydroxypropylcellulose) (HPC)

In the case of `CCN(CC)C(=O)C1CN2CCc3cc(OC)c(OC)cc3C2CC1OC(C)=O` (configuration not stated), the T/C (dose: 0.39 mg/kg/injection, schedule: Q01DX009 (ip), vehicle: Klucel (hydroxypropylcellulose) (HPC)) was 95 % of control, the T/C (dose: 0.78 mg/kg/injection, schedule: Q01DX009 (ip), vehicle: Klucel (hydroxypropylcellulose) (HPC)) was 86 % of control and the T/C (dose: 1.56 mg/kg/injection, schedule: Q01DX009 (ip), vehicle: Klucel (hydroxypropylcellulose) (HPC)) was 96 % of control. The T/C [1] was 104 % of control, the T/C [2] was 100 % of control and the T/C [3] was 89 % of control. For the same compound, the T/C [4] was 100 % of control.

`c1ccc(CCN2CCCCC2)nc1` was tested, and the T/C (dose: 1.56 mg/kg/injection, schedule: Q01DX009 (ip), vehicle: saline) was 109 % of control, the T/C (dose: 3.13 mg/kg/injection, schedule: Q01DX009 (ip), vehicle: saline) was 106 % of control and the T/C (dose: 6.25 mg/kg/injection, schedule: Q01DX009 (ip), vehicle: saline) was 100 % of control.

With `CC1CN1CC(O)C(O)CN1CC1C` (configuration not stated) the T/C (dose: 0.25 mg/kg/injection, schedule: Q01DX009 (ip), vehicle: saline) was 100 % of control, the T/C (dose: 0.4 mg/kg/injection, schedule: Q01DX009 (ip), vehicle: saline) was 110 % of control and the T/C (dose: 0.5 mg/kg/injection, schedule: Q01DX009 (ip), vehicle: saline) was 107 % of control and 102 % of control. For the same compound, the T/C (dose: 0.6 mg/kg/injection, schedule: Q01DX009 (ip), vehicle: saline) was 118 % of control, the T/C (dose: 0.63 mg/kg/injection, schedule: Q01DX009 (ip), vehicle: saline) was 150 % of control and the T/C (dose: 0.8 mg/kg/injection, schedule: Q01DX009 (ip), vehicle: saline) was 110 % of control. The T/C (dose: 0.9 mg/kg/injection, schedule: Q01DX009 (ip), vehicle: saline) was 153 % of control, the T/C (dose: 1.25 mg/kg/injection, schedule: Q01DX009 (ip), vehicle: saline) was 93 % of control and the T/C (dose: 2.0 mg/kg/injection, schedule: Q01DX009 (ip), vehicle: saline) was 156 % of control and 151 % of control. For the same compound, the T/C (dose: 2.5 mg/kg/injection, schedule: Q01DX009 (ip), vehicle: saline) was 106 % of control.

In the case of `O=C(CC1(Cl)C(F)(F)C(F)(F)C1(F)F)c1ccccc1`, the T/C (dose: 0.75 mg/kg/injection, schedule: Q01DX009 (ip), vehicle: saline with Tween-80) was 100 % of control, the T/C (dose: 1.5 mg/kg/injection, schedule: Q01DX009 (ip), vehicle: saline with Tween-80) was 100 % of control and the T/C (dose: 3.0 mg/kg/injection, schedule: Q01DX009 (ip), vehicle: saline with Tween-80) was 95 % of control. For the same compound, the T/C (dose: 4.0 mg/kg/injection, schedule: Q04DX003 (ip), vehicle: saline) was 100 % of control, the T/C (dose: 12.5 mg/kg/injection, schedule: Q01DX009 (ip), vehicle: saline with Tween-80) was 90 % of control and the T/C (dose: 25.0 mg/kg/injection, schedule: Q04DX003 (ip), vehicle: saline with Tween-80) was 102 % of control.

With `ClCCOC1COC(OCCCl)CO1` (configuration not stated) the T/C [1] was 103 % of control, the T/C [2] was 98 % of control and the T/C (dose: 12.5 mg/kg/injection, schedule: Q01DX009 (ip), vehicle: Klucel (hydroxypropylcellulose) (HPC)) was 93 % of control. The T/C (dose: 25.0 mg/kg/injection, schedule: Q01DX009 (ip), vehicle: Klucel (hydroxypropylcellulose) (HPC)) was 103 % of control, the T/C [3] was 96 % of control and the T/C [4] was 98 % of control. The T/C [5] was 100 % of control.

For `NC(=S)N/N=C/c1ccc(C(F)(F)F)cn1`, the T/C (dose: 8.8 mg/kg/injection, schedule: Q01DX009 (ip), vehicle: Klucel (hydroxypropylcellulose) (HPC)) was 106 % of control, the T/C (dose: 13.3 mg/kg/injection, schedule: Q01DX009 (ip), vehicle: Klucel (hydroxypropylcellulose) (HPC)) was 108 % of control and the T/C (dose: 20.0 mg/kg/injection, schedule: Q01DX009 (ip), vehicle: Klucel (hydroxypropylcellulose) (HPC)) was 109 % of control.

In the case of `COc1cc2c3c(c1)/C(=N\NC(N)=O)CCN3CCC2`, the T/C [6] was 97 % of control, the T/C [7] was 100 % of control and the T/C [8] was 100 % of control.

`CC1(C)CC(O)(C(Cl)c2ccccc2)C(=O)c2ccccc21` (configuration not stated) was tested, and the T/C [3] was 103 % of control, the T/C [4] was 95 % of control and the T/C [5] was 94 % of control. For the same compound, the T/C (dose: 400.0 mg/kg/injection, schedule: Q01DX009 (ip), vehicle: Klucel (hydroxypropylcellulose) (HPC)) was 90 % of control.

In the case of `COC(=O)c1[nH]c(=O)[nH]c(=O)c1F`, the T/C (dose: 2.0 mg/kg/injection, schedule: Q01DX009 (ip), vehicle: saline with Tween-80) was 95 % of control, the T/C (dose: 4.0 mg/kg/injection, schedule: Q01DX009 (ip), vehicle: saline with Tween-80) was 97 % of control and the T/C (dose: 8.0 mg/kg/injection, schedule: Q01DX009 (ip), vehicle: saline with Tween-80) was 107 % of control.

For `CCN(C(=O)Nc1ccccc1)c1ccccc1`, the T/C (dose: 100.0 mg/kg/injection, schedule: Q04DX003 (ip), vehicle: saline with Tween-80) was 94 % of control, the T/C (dose: 200.0 mg/kg/injection, schedule: Q04DX003 (ip), vehicle: saline with Tween-80) was 100 % of control and the T/C (dose: 400.0 mg/kg/injection, schedule: Q04DX003 (ip), vehicle: saline with Tween-80) was 97 % of control.

`Cc1noc(/N=C/c2ccccc2)c1C` was tested, and the T/C [6] was 108 % of control, the T/C [7] was 105 % of control and the T/C [8] was 108 % of control.
